According to PubChem BioAssay (NCI):
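Abbreviation: GI50, concentration required for 50% inhibition of growth. TGI: total growth inhibition.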

How the values were obtained:
Experiment in all cases: NCI tumour cell line growth inhibition, 384-well format
A549 NSCLC = test system: A549 NSCLC
HCT-116 colon = test system: HCT-116 colon
COLO 205 colon = test system: COLO 205 colon
BT-549 breast = test system: BT-549 breast
CAKI-1 renal = test system: CAKI-1 renal

With `O=C(O)C1(C(=O)O)CCC1.[NH2-].[NH2-].[Pt+2]` the GI50 (A549 NSCLC) was less than 10 nM, the TGI (A549 NSCLC) was less than 10 nM and the GI50 (HCT-116 colon) was less than 10 nM. The TGI (HCT-116 colon) was less than 10 nM, the GI50 (COLO 205 colon) was less than 10 nM and the TGI (COLO 205 colon) was less than 10 nM. For the same molecule, the GI50 (BT-549 breast) was less than 10 nM, the TGI (BT-549 breast) was less than 10 nM and the GI50 (CAKI-1 renal) was less than 10 nM. The TGI (CAKI-1 renal) was less than 10 nM.
